Measured values: patent US11220524B2, “Selective inhibitors of protein arginine methyltransferase 5 (PRMT5)” (PRELUDE THERAPEUTICS, INCORPORATED, priority 2017, dated 2022)
Structures can show the parent of a compound that is named as a salt. Where two headings read alike, the source gives them in different places.

Biological target: PRMT5/MEP50 complex (Homo sapiens (Human), UniProt O14744)
Assay: Biochemical assay: PRMT5/MEP50 methylation of histone H2A with 3H-SAM, filter plate scintillation
Procedure: Biochemical Assay Protocol
Compounds were solubilized, and 3-fold diluted in 100% DMSO. […] Standard reactions were performed in a total volume of […] assay buffer, with histone H2A (5 μM final) as substrate. To this was added the PRMT5/MEP50 complex diluted to provide a final assay concentration of 5 nM and the compounds were allowed to preincubate for 15 to 20 minutes at room temperature. The reaction was initiated by adding S-[3H-methyl]-adenosyl-L-methionine (PerkinElmer) to final concentration of 1 μM. Following a 60 minutes incubation at 30° C., the reaction was stopped by adding 100 μL of 20% TCA. Each reaction was spotted onto filter plate (MultiScreen FB Filter Plate, Millipore), and washed 5 times with PBS buffer, Scintillation fluid was added to the filter plate and read in a scintillation counter. IC50 values were determined by fitting the data to the standard 4 parameters with Hill Slope using GraphPad Prism software.

[1] = biochemical potency, read-out: PRTMT5/MEP50 IC50
[2] = histone H2A 5 μM, SAM 1 μM, enzyme 5 nM, read-out: PRMT5/MEP50 IC50

Sequence of PRMT5/MEP50 complex (O14744 whole entry): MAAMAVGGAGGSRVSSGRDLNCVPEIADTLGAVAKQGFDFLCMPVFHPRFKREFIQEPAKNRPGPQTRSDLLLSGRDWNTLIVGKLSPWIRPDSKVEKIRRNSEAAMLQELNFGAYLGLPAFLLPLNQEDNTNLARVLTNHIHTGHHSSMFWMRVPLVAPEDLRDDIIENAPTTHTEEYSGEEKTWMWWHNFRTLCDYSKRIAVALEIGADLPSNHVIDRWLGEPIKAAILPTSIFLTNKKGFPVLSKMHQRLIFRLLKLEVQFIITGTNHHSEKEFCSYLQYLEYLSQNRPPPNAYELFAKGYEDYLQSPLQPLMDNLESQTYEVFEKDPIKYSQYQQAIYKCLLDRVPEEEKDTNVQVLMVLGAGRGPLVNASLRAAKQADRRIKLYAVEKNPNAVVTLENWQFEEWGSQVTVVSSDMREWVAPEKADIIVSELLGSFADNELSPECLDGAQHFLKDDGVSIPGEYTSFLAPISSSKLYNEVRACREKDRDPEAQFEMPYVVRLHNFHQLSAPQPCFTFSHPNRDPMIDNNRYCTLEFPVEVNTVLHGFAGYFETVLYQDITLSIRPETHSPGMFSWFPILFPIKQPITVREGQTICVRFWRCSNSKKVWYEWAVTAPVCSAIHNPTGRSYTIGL
Sequence of PRMT5/MEP50 complex (Q9BQA1 whole entry partner): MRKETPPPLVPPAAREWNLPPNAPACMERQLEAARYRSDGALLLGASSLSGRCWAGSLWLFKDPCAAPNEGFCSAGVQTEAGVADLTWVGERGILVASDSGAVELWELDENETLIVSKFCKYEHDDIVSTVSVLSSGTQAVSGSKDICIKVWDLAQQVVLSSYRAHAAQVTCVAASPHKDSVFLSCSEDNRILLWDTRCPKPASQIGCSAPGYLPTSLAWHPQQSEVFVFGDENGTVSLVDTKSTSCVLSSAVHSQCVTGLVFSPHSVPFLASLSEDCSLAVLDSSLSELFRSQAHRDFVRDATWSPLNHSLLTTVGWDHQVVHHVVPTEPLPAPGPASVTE

Row | Structure (SMILES) | IC50 [1] | IC50 [2]
1 | N/N=c1/nc[nH]c2c1c(F)cn2[C@@H]1C[C@H]([C@H](O)c2ccc(Cl)cc2)[C@@H](O)[C@H]1O [Example 28-B, 7-[(1R,2S,3R,4R)-4-[(S)-(4-chlorophenyl)-hydroxy-methyl]-2,3-dihydroxy-cyclopentyl]-5-fluoro-H-pyrrolo[2,3-d]pyrimidin-4-one hydrazone hydrochloride] | 1160 nM | –
2 | CO/N=c1/nc[nH]c2c1ccn2[C@@H]1C[C@H]([C@H](O)c2ccc(Cl)cc2)[C@@H](O)[C@H]1O [Example 49-B, (1S,2R,3R,5R)-3-[(S)-(4-chlorophenyl)-hydroxy-methyl]-5-[(4Z)-4-methoxyimino-1H-pyrrolo[2,3-d]pyrimidin-7-yl]cyclopentane-1,2-diol hydrochloride] | 543 nM | –
3 | CCO/N=c1\[nH]cnc2c1ncn2[C@@H]1O[C@H]([C@](C)(O)c2ccc(Cl)c(Cl)c2)[C@@H](O)[C@H]1O [Example 93, (2S,3S,4R,5R)-2-[(1R)-Example 931-(3,4-dichlorophenyl)-1-hydroxy-ethyl]-5-[(6Z)-6-ethoxyimino-1H-purin-9-yl]tetrahydrofuran-3,4-diol] | – | 920 nM
4 | CO/N=c1\[nH]cnc2c1ncn2[C@@H]1O[C@H]([C@](C)(O)c2ccc(Cl)c(C)c2)[C@@H](O)[C@H]1O [Example 94, (2S,3S,4R,5R)-2-[(1R)-1-(4-chloro-3-methylphenyl)-1-hydroxy-ethyl]-5-[(6Z)-6-methoxyimino-1H-purin-9-yl]tetrahydrofuran-3,4-diol] | – | 1620 nM
5 | CCO/N=c1\[nH]cnc2c1ncn2[C@@H]1O[C@H]([C@](C)(O)c2ccc(Cl)c(C)c2)[C@@H](O)[C@H]1O [Example 95, (2S,3S,4R,5R)-2-[(1R)-1-(4-chloro-3-methylphenyl)-1-hydroxy-ethyl]-5-[(6Z)-6-ethoxyimino-1H-purin-9-yl]tetrahydrofuran-3,4-diol] | – | 699 nM
6 | CCO/N=c1\nc[nH]c2c1ccn2[C@@H]1O[C@H]([C@H](O)c2ccc(Cl)cc2)[C@@H](O)[C@H]1O [Example 97, 7-((2R,3R,4S,5R)-5-((R)-(4-chlorophenyl)(hydroxy)methyl)-3,4-dihydroxytetrahydrofuran-2-yl)-1,7-dihydro-4H-pyrrolo[2,3-d]pyrimidin-4-one O-ethyl oxime] | – | 42 nM
7 | CO/N=c1\nc[nH]c2c1c(CCO)cn2[C@@H]1O[C@H]([C@H](O)c2ccc(Cl)c(Cl)c2)[C@@H](O)[C@H]1O [Example 100, 7-((2R,3R,4S,5R)-5-((R)-(3,4-dichlorophenyl)(hydroxy)methyl)-3,4-dihydroxytetrahydrofuran-2-yl)-5-(2-hydroxyethyl)-1,5-dihydro-4H-7l4-pyrrolo[2,3-d]pyrimidin-4-one O-methyl oxime] | – | 1770 nM

Second part, the compound after the results:

Row | IC50 [1] | IC50 [2] | Structure (SMILES)
8 | 37 nM | – | O/N=c1\nc[nH]c2c1ccn2[C@@H]1C[C@H]([C@H](O)c2ccc(F)c(F)c2)[C@@H](O)[C@H]1O [Example 88-B, 7-((1R,2S,3R,4R)-4-((S)-(3,4-difluorophenyl)(hydroxy)methyl)-2,3-dihydroxycyclopentyl)-1,7-dihydro-4H-pyrrolo[2,3-d]pyrimidin-4-one oxime]
9 | 95 nM | – | CO/N=c1\nc[nH]c2c1ccn2[C@@H]1C[C@H]([C@H](O)c2ccc(F)c(F)c2)[C@@H](O)[C@H]1O [Example 89-B, 7-((1R,2S,3R,4R)-4-((S)-(3,4-difluorophenyl)(hydroxy)methyl)-2,3-dihydroxycyclopentyl)-1,7-dihydro-4H-pyrrolo[2,3-d]pyrimidin-4-one O-methyl oxime]
10 | 2.3 nM | – | O/N=c1/nc[nH]c2c1ccn2[C@@H]1C[C@H]([C@H](O)c2ccc(Cl)c(Cl)c2)[C@@H](O)[C@H]1O [Example 93-B, 7-((1R,2S,3R,4R)-4-((S)-(3,4-dichlorophenyl)(hydroxy)methyl)-2,3-dihydroxycyclopentyl)-1,7-dihydro-4H-pyrrolo[2,3-d]pyrimidin-4-one oxime]
